PMC8319670 (Science translational medicine, 2021)

How the values were obtained:
[1] = biological target: T1, H6PD (Homo sapiens, UniProt O95479); assay: Surface plasmon resonance; type: binding; settings: SPR; Fig. 4A and fig. S9
T1 sequence (O95479 20-791): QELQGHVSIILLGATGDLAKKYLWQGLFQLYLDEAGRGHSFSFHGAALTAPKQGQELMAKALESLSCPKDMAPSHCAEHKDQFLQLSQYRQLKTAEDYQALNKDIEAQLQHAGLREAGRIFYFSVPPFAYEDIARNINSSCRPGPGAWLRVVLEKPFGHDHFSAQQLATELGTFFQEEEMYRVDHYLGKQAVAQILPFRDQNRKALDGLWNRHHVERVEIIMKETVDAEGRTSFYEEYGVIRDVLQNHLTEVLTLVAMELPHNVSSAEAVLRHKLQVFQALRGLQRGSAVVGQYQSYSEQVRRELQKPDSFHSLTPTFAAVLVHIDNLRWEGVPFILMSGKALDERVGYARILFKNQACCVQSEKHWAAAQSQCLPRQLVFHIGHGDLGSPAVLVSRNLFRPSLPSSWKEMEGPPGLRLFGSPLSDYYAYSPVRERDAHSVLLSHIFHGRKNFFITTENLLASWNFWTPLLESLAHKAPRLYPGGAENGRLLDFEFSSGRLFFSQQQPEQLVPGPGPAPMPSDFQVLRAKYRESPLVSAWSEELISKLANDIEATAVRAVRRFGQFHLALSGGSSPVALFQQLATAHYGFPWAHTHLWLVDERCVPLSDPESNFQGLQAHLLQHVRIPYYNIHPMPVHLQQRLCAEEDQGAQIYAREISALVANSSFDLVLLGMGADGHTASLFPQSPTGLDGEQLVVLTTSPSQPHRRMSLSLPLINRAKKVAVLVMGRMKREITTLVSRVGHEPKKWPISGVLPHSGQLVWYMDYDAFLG

[2] = biological target: G6PD (Homo sapiens, UniProt P11413); assay: G6PD activity assay; type: biochemical; settings: fig. S10
[3] = biological target: T1, H6PD; assay: In vitro H6PD activity assay; type: biochemical; settings: for inhibition of H6PD activity: fig. S10
[4] = biological target: T1, H6PD; assay: H6PD IC50 assay; type: biochemical; settings: for loss of H6PD inhibitory potency: relative to rucaparib
[5] = tested on: H6PD protein; assay: H6PD protein immunoblot in enz-treated cell lines; type: cell-based, human; settings: in vitro, LAPC4, VCaP and MDA-Pca-2b; transcript not increased
[6] = tested on: H6PD activity in LAPC4 cells; assay: Endoplasmic reticulum / microsomal NADPH in LAPC4 cells
[7] = tested on: H6PD; assay: H6PD protein in prostate cancer patient tissues; set-up: species or system human; settings: men with prostate cancer treated with enz and prostate tissues treated ex vivo; compared with pre-treatment
[8] = tested on: prostate cancer cells; assay: Glucocorticoid metabolism with apalutamide treatment; type: cell-based, human; settings: similar to enzalutamide
[9] = tested on: H6PD; settings: of four PARP inhibitors; cited from earlier work
[10] = tested on: enz-resistant LAPC4 cells; assay: Cell viability assay; type: cell-based, human; settings: 100 nM cortisol with 10 μM enz, 5 days; Fig 4E
[11] = tested on: PARP-1; settings: cited from earlier work

Chain of G6PD (P11413 whole entry): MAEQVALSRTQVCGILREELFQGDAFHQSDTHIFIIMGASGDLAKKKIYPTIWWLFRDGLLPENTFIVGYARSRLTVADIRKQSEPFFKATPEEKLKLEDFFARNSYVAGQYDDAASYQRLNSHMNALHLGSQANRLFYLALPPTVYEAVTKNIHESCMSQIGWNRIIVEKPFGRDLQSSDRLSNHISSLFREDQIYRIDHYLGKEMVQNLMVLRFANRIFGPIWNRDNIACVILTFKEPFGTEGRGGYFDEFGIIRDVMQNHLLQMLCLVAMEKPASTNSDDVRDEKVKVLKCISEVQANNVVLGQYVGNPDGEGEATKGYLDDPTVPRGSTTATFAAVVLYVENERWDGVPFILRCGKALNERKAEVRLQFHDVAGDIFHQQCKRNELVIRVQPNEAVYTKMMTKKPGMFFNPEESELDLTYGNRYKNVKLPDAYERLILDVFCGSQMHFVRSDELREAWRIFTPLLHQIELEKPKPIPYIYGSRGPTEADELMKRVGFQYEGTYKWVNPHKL

O=C(c1cc(Cc2n[nH]c(=O)c3ccccc23)ccc1F)N1CCN(C(=O)C2CC2)CC1 [olaparib]
binding to H6PD [1]: but not olaparib (another PARP inhibitor) specifically bound H6PD | inhibition of G6PD activity [2]: neither inhibited G6PD activity | inhibition of H6PD activity [3]: but not olaparib inhibited H6PD activity

CNCc1ccc(-c2[nH]c3cc(F)cc4c3c2CCN(C)C4=O)cc1 [Compound 4]
loss of H6PD inhibitory potency [4]: ~ 10 x

CNC(=O)c1ccc(N2C(=S)N(c3ccc(C#N)c(C(F)(F)F)c3)C(=O)C2(C)C)cc1F [enzalutamide]
H6PD protein [5]: increased | increase in NADPH generation in the endoplasmic reticulum ([6]; LAPC4 cells, continuous enz treatment, p<0.0001): > 2 fold | H6PD in patient tissues post-treatment [7]: increase in H6PD was also detectable

CNC(=O)c1ccc(N2C(=S)N(c3cnc(C#N)c(C(F)(F)F)c3)C(=O)C23CCC3)cc1F [apalutamide]
changes in glucocorticoid metabolism [8]: induces similar changes in glucocorticoid metabolism

CNCc1ccc(-c2[nH]c3cc(F)cc4c3c2CCNC4=O)cc1 [rucaparib]
binding to H6PD [1]: specifically bound H6PD | inhibition of G6PD activity [2]: neither inhibited G6PD activity | off-target H6PD inhibition [9]: off-target H6PD inhibition was specifically identified only with rucaparib | H6PD generation of NADPH in enz-resistant prostate cancer ([6]; enz-resistant LAPC4 cells, 24 hours, microsomal NADPH, Fig 4C): inhibited H6PD generation of NADPH | cell viability [10]: limited cell viability in vitro | H6PD generation of NADPH in vitro ([3]; H6PD protein, D-glucosamine 6-phosphate and NADP, 1 hour, Fig 4B): inhibited H6PD generation of NADPH in vitro | inhibition of H6PD activity [3]: inhibited H6PD activity | inhibition of H6PD activity ([3]; listed as Rucaparib): modest H6PD inhibitor

O=C1NCCc2c(-c3ccc(CO)cc3)[nH]c3cc(F)cc1c23 [Compound 5]
PARP inhibition activity [11]: poor PARP inhibition activity | IC50 ([4]; read-out: H6PD IC50): 27 µM

CNCc1ccc(-c2[nH]c3cccc4c3c2CCNC4=O)cc1 [Compound 2]
loss of H6PD inhibitory potency [4]: greater than 20 x
